Laboratory results as given in patent publication US9371290B2, “Pyridazinone compounds” (BIOTIE THERAPIES CORPORATION, priority 2011, dated 2016).

| Compound | melting point |
| --- | --- |
| O=c1cc(Nc2ccncc2)c(-c2nc[nH]n2)nn1-c1ccccc1 [Compound 53] | 342 to 344 °C |
| COc1ccc(-n2nc(-c3nc[nH]n3)c(Oc3ccccc3)cc2=O)cc1 [Compound 26] | 284 to 286 °C |
| Cn1cnc(-c2nn(-c3ccccc3)c(=O)cc2Oc2ccccc2)n1 [Compound 41] | 235 to 237 °C |
| Cc1nc(-c2nn(-c3ccccc3)c(=O)cc2Oc2ccccc2)n[nH]1 [Compound 51, 5-phenoxy-2-phenyl-6-(5-methyl-1H-1,2,4-triazol-3-yl)-3(2H)-pyridazinone] | 245 to 247 °C |
| CCCc1cn(-c2cc(=O)n(-c3ccccc3)nc2C#N)nn1 [Compound 32, 6-oxo-1-phenyl-4-(4-propyl-1H-1,2,3-triazol-1-yl)-1,6-dihydropyridazine-3-carbonitrile] | 192 to 195 °C |
| O=c1cc(O)c(-c2nc[nH]n2)nn1-c1ccccc1 [Compound 3] | 218 to 220 °C |
| O=c1cc(Oc2ccccc2)c(-c2nc[nH]n2)nn1-c1ccccc1F [Compound 45] | 265 to 267 °C |
| [N-]=[N+]=Nc1cc(=O)n(-c2ccccc2)nc1C1=NCCN1 [Compound 47, 5-Azido-6-(4,5-dihydro-1H-imidazol-2-yl)-2-phenylpyridazin-3(2H)-one] | 238 to 240 °C |
| CN(C)c1ccc(Nc2cc(=O)n(-c3cccc(Cl)c3)nc2-c2nc[nH]n2)cc1 [Compound 72] | 243 to 245 °C |
| CN1CCN(c2cc(=O)n(-c3ccccc3)nc2C(N)=O)CC1.Cl | 248 to 250 °C |
| O=c1cc(Nc2ccccc2)c(-c2nc[nH]n2)nn1-c1ccccc1 [Compound 40] | 287 to 290 °C |
| CC(C)Nc1cc(=O)n(-c2ccccc2)cc1-c1nc[nH]n1 [Compound 54, 4-isopropylamino-1-phenyl-5-(1H-1,2,4-triazol-3-yl)-pyridin-2(1H)-one] | 307 to 310 °C |

Other lines, results leading:

| melting point | Compound |
| --- | --- |
| 278 to 281 °C | Nc1ccc(Nc2cc(=O)n(-c3ccc(Cl)cc3)nc2-c2nc[nH]n2)cc1 [Compound 66] |
| 227 to 230 °C | COc1ccc(Nc2cc(=O)n(-c3ccc(Cl)cc3)nc2-c2nc[nH]n2)cc1OC [Compound 60] |
| 212 to 214 °C | Cc1ccsc1-c1nn(-c2ccccc2)c(=O)cc1Oc1ccccc1 [Compound 20] |
| 303 to 306 °C | N#CCNc1cc(=O)n(-c2ccc(Cl)cc2)nc1-c1nc[nH]n1 [Compound 79] |
| 270 to 272 °C | CN1CCC(Nc2cc(=O)n(-c3ccc(Cl)cc3)nc2-c2nc[nH]n2)CC1 [Compound 67] |
| 212 to 224 °C | O=c1cc(Nc2ccc(N3CCNCC3)cc2)c(-c2nc[nH]n2)nn1-c1ccc(Cl)cc1 [Compound 80, 2-(4-chlorophenyl)-5-{[4-(4-piperazine-1-yl)phenyl]amino}-6-(1H-1,2,4-triazol-3-yl)-3(2H)-pyridazinone] |
| 245 to 247 °C | O=c1cc(Oc2ccccc2)c(-c2cn[nH]c2)nn1-c1ccccc1 [Compound 30] |
| 165 to 170 °C | CCOC(=O)c1cn(-c2cc(=O)n(-c3ccccc3)nc2C(=O)OC)nn1 [Compound 7] |
| 138 to 141 °C | CN(C)CCNC(=O)c1nn(-c2ccccc2)c(=O)cc1Oc1ccccc1.Cl |
| 146 to 148 °C | O=c1cc(Oc2ccccc2)c(-c2cccc(C(F)(F)F)c2)nn1-c1ccccc1 [Compound 21, 5-phenoxy-2-phenyl-6-[(3-trifluoromethyl)phenyl]pyridazin-3(2H)-one] |
| 118 to 119 °C | Cn1nccc1-c1nn(-c2ccccc2)c(=O)cc1Oc1ccccc1 [Compound 1] |
| 175 to 176 °C | CN(C)/C=N/C(=O)c1nn(-c2ccccc2)c(=O)cc1Oc1ccccc1 [Compound 23, N,N-dimethyl-N′-[(6-oxo-4-phenoxy-1-phenyl-1,6-dihydropyridazin-3-yl)carbonyl]formamidine] |
| 301 to 303 °C | O=c1cc(N2CCCC2)c(-c2nc[nH]n2)nn1-c1ccccc1 [Compound 44] |
